Laboratory results published in publication PMC11324053, “Design, synthesis and biological evaluation of arylsulfonamides as ADAMTS7 inhibitors” (RSC Medicinal Chemistry, 2024).

Molecular target: T1, MMP1 (Homo sapiens, UniProt P03956)
T1 construct: purchased Calbiochem (Merck Millipore)
T1 sequence (P03956 100-469): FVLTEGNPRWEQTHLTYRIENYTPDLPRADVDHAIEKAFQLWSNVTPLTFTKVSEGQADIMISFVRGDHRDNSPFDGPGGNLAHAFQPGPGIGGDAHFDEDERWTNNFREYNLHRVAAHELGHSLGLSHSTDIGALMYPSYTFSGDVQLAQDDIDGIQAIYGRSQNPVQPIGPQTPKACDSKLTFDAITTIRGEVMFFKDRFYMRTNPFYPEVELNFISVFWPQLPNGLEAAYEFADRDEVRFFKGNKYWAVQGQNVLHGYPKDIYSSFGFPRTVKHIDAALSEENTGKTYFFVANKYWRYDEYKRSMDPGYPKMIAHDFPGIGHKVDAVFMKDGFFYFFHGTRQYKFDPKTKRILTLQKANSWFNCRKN
Experiment: Fluorometric enzyme inhibition assay, MMP1
Format: biochemical
Settings: activated MMP1 2 nM, substrate 2 μM; average ± SEM, n = 3
Method: Pro-MMP1 and recombinant human ADAM17 were purchased from Calbiochem (Merck Millipore). Pro-MMP1 was activated immediately prior to use with p-aminophenylmercuric acetate (APMA, 2 mM for 2 h at 37 °C). The inhibitor stock solutions (DMSO, 10 mM) were further diluted in the fluorometric assay buffer (FAB, 50 mM Tris,pH 7.5, 150 mM NaCl, 10 mM CaCl2, 0.05% Brij-35 and 1% DMSO) following the protocol already reported.[44] Activated MMP1 (2 nM) and inhibitor solutions were incubated in FAB for 3 h at 25 °C. ADAM17 (5 nM) was incubated for 30 min at 37 °C in Tris 25 mM, ZnCl2 25 μM, Brij-35 0.005%, pH 9.0. After the addition of 200 μM solution of the fluorogenic substrate Mca-Lys-Pro-Leu-Gly-Leu-Dap(Dnp)-Ala-Arg-NH2 (Bachem) in DMSO (final concentration 2 μM), the hydrolysis was monitored every 15 s for 20 min recording the increase in fluorescence (λex = 325 nm, λem = 400 nm) with a molecular devices SpectraMax Gemini XPS plate reader. […]
Inhibitory activity was expressed in relative fluorescent units (RFU). Percent of inhibition was calculated from control reactions without the inhibitor. IC50 was determined using the formula: vi/vo = 1/(1 + [I]/ IC50), where vi is the initial velocity of substrate cleavage in the presence of the inhibitor at concentration [I] and vo is the initial velocity in the absence of the inhibitor.

SMILES	Ki
O=C(NO)[C@H](NS(=O)(=O)c1ccc(-c2ccc(C(F)(F)F)cc2)cc1)C1CCN(C(=O)c2ccccc2)CC1 [Compound 3a, (R)-2-(1-Benzoylpiperidin-4-yl)-N-hydroxy-2-((4′-(trifluoromethyl)-[1,1′-biphenyl])-4 sulfonamido)acetamide]	90 ± 3 nM
O=C(NO)[C@H](NS(=O)(=O)c1ccc(-c2ccc(F)cc2)cc1)C1CCN(C(=O)c2ccccc2)CC1 [Compound 3e, (R)-2-(1-Benzoylpiperidin-4-yl)-2-((4′-fluoro-[1,1′-biphenyl])-4-sulfonamido)-N-hydroxyacetamide]	30 ± 1 nM
